Experimental data reported in patent US20210207064A1, “COMPOUND FOR RESTORING CONTAMINATED SOIL OR CONTAMINATED WATER” (FNG RESEARCH CO., LTD., priority 2018, published 2021).

How the values were obtained:
[1] = Heavy metal removal ability test in contaminated soil (ICP-MS), cadmium; settings: for Cadmium (Cd) Adsorption amount: contaminated soil; for Cadmium (Cd) Adsorption rate: relative to EDTA control
Procedure: (§1) (1) Preparation of Soil Contaminated with Heavy Metal
(§2) After collecting and pulverizing uncontaminated soil, fine particles obtained by using a mesh were mixed with the aqueous heavy metal solution to prepare soil samples contaminated with heavy metals.
(§3) Each 3 ml of the prepared aqueous solution was added to a soil sample contaminated with heavy metals and mixed for 5 minutes.
(§4) 50 ml of distilled water was added to the contaminated soil mixed with the aqueous solution for restoring soil, stirred for 20 minutes, and settled for 1 hour, and a supernatant was prepared as a sample solution.
(§5) The prepared sample solution was analyzed for the heavy metal component using an Inductively Coupled Plasma Mass Spectrometer (ICP-MS) (Xseries™ 2, Thermo Fisher Scientific, UK).
(§6) Adsorption rate of heavy metals (%)=(Adsorption amount of Embodiment/Adsorption amount of Control)×100 Equation 1

[2] = Formaldehyde (formalin) removing ability test (GC); settings: 2.0% formaldehyde solution, 3 molar equivalents of compound, room temperature; for Formaldehyde GC Area, 30 min: after 30 min; for Formaldehyde GC Area, 180 min: after 180 min; for Formaldehyde GC Area, Initial: initial state
[3] = Heavy metal removal ability test in contaminated soil (ICP-MS), nickel; settings: for Nickel (Ni) Adsorption amount: contaminated soil; for Nickel (Ni) Adsorption rate: relative to EDTA control
Procedure: as §1, §2, §3, §4, §5, §6

[4] = Heavy metal removal ability test in contaminated soil (ICP-MS), arsenic; settings: for Arsenic (As) Adsorption amount: contaminated soil; for Arsenic (As) Adsorption rate: relative to EDTA control
Procedure: as §1, §2, §3, §4, §5, §6

human skin = test: Skin irritation test of active ingredient (patch method, CTFA guidelines); assay type: in vivo; settings: 24 h patch; for Test result (number of subject) (+) / Test result (number of subject) (++) / Test result (number of subject) (±) / Test result (number of subject) (−): 20 people; for Test result (number of subject) (+): (+) apparent reddening; for Test result (number of subject) (++): (++) more reddened and swollen; for Test result (number of subject) (±): (±) slightly reddish; for Test result (number of subject) (−): (−) no erythema
Procedure: A filter paper disk was placed in an 8 mm diameter, 10 panels of pin chamber.
After 24 hours, the pin chamber was removed, and skin conditions were visually observed. The degree and grade for skin irritation were calculated according to the following Equation 2, and the results are shown in Table 4 below.
[Criteria for Skin Irritation]
(−): No erythema or particularly no symptoms; (±): slightly reddish than the periphery; (+): Apparent reddening than periphery; (++): More reddened and swollen than periphery.
[Grade for Skin Irritation]
Degree of irritation 0-0.1: Grade I (unstimulated);
Degree of irritation 0.11-0.3: Grade II (weakly stimulated);
Degree of irritation 0.31-0.5: Grade III (moderately stimulated);
Degree of irritation 0.51 or more: Grade IV (strongly stimulated)

[5] = Heavy metal removal ability test in contaminated soil around a factory (WAK-Me test kit); settings: 1.0 wt % aqueous solution, colour comparison test kit
Procedure: The contaminated soil around the factory in the industrial complex was collected, pulverized, and meshed to prepare fine particles of soil samples.
Each 3 ml of aqueous solutions for restoring soil was added to soil samples and mixed for 5 minutes.

Compound | Cadmium (Cd) Adsorption amount ([1]; content 0.5% aqueous solution) [ppm] | Cadmium (Cd) Adsorption rate ([1]; content 0.5%) [%] | Cadmium (Cd) Adsorption amount ([1]; content 1.0% aqueous solution) [ppm] | Cadmium (Cd) Adsorption rate ([1]; content 1.0%) [%] | Cadmium (Cd) Adsorption amount ([1]; content 2.0% aqueous solution) [ppm] | Cadmium (Cd) Adsorption rate ([1]; content 2.0%) [%] | Formaldehyde GC Area, 30 min [2] [mAU*min] | Formaldehyde GC Area, 180 min [2] [mAU*min] | Formaldehyde GC Area, Initial [2] [mAU*min] | Nickel (Ni) Adsorption amount ([3]; content 0.5% aqueous solution) [ppm] | Nickel (Ni) Adsorption rate ([3]; content 0.5%) [%] | Nickel (Ni) Adsorption amount ([3]; content 1.0% aqueous solution) [ppm] | Nickel (Ni) Adsorption rate ([3]; content 1.0%) [%] | Nickel (Ni) Adsorption amount ([3]; content 2.0% aqueous solution) [ppm] | Nickel (Ni) Adsorption rate ([3]; content 2.0%) [%] | Arsenic (As) Adsorption amount ([4]; content 0.5% aqueous solution) [ppm] | Arsenic (As) Adsorption rate ([4]; content 0.5%) [%] | Arsenic (As) Adsorption amount ([4]; content 1.0% aqueous solution) [ppm] | Arsenic (As) Adsorption rate ([4]; content 1.0%) [%] | Arsenic (As) Adsorption amount ([4]; content 2.0% aqueous solution) [ppm] | also measured
C1CNCCNCCNCCN1 [Cyclen, 1,4,7,10-tetraazacyclododecane] | 69 | 168 | 74 | 180 | 81 | 198 | 0.181 | 0 | 0.305 | 91 | 186 | 93 | 190 | 98 | 200 | 42 | 168 | 49 | 196 | 51 | Arsenic (As) Adsorption rate ([4]; content 2.0%): 204%; Test result (number of subject) (+) (human skin; content 0.1 wt %): 0; Test result (number of subject) (++) (human skin; content 0.1 wt %): 0; Test result (number of subject) (±) (human skin; content 0.1 wt %): 0; Test result (number of subject) (−) (human skin; content 0.1 wt %): 20; Degree of irritation (human skin; content 0.1 wt %): 0; Grade for skin irritation (human skin; content 0.1 wt %): I (Degree of irritation 0-0.1: Grade I (unstimulated)); Test result (number of subject) (+) (human skin; content 0.5 wt %): 0; Test result (number of subject) (++) (human skin; content 0.5 wt %): 0; Test result (number of subject) (±) (human skin; content 0.5 wt %): 0; Test result (number of subject) (−) (human skin; content 0.5 wt %): 20; Degree of irritation (human skin; content 0.5 wt %): 0; Grade for skin irritation (human skin; content 0.5 wt %): I (Degree of irritation 0-0.1: Grade I (unstimulated)); Test result (number of subject) (+) (human skin; content 1.0 wt %): 1; Test result (number of subject) (++) (human skin; content 1.0 wt %): 0; Test result (number of subject) (±) (human skin; content 1.0 wt %): 1; Test result (number of subject) (−) (human skin; content 1.0 wt %): 18; Degree of irritation (human skin; content 1.0 wt %): 0.15; Grade for skin irritation (human skin; content 1.0 wt %): II (Degree of irritation 0.11-0.3: Grade II (weakly stimulated)); Total amount (Cu, Zn, Mn, Ni, Cd) [5]: ≤5 ppm
O=C(O)c1ccc(N(CCN(CCN(c2ccc(C(=O)O)o2)c2ccc(C(=O)O)o2)c2ccc(C(=O)O)o2)CCN(c2ccc(C(=O)O)o2)c2ccc(C(=O)O)o2)o1 [Embodiment 4, 5,5′,5″,5′″-(((ethane-1,2-diylbis((5-carboxyfuran-2-yl)azanediyl))bis(ethane-2,1-diyl))bis(azanetriyl))tetrakis(furan-2-carboxylic Acid)] | 67 | 163 | 74 | 180 | 80 | 195 | 0.173 | 0 | 0.305 | 91 | 186 | 94 | 192 | 104 | 212 | 53 | 212 | 56 | 224 | 56 | Arsenic (As) Adsorption rate ([4]; content 2.0%): 224%; Test result (number of subject) (+) (human skin; content 0.1 wt %): 0; Test result (number of subject) (++) (human skin; content 0.1 wt %): 0; Test result (number of subject) (±) (human skin; content 0.1 wt %): 0; Test result (number of subject) (−) (human skin; content 0.1 wt %): 20; Degree of irritation (human skin; content 0.1 wt %): 0; Grade for skin irritation (human skin; content 0.1 wt %): I (Degree of irritation 0-0.1: Grade I (unstimulated)); Test result (number of subject) (+) (human skin; content 0.5 wt %): 0; Test result (number of subject) (++) (human skin; content 0.5 wt %): 0; Test result (number of subject) (±) (human skin; content 0.5 wt %): 0; Test result (number of subject) (−) (human skin; content 0.5 wt %): 20; Degree of irritation (human skin; content 0.5 wt %): 0; Grade for skin irritation (human skin; content 0.5 wt %): I (Degree of irritation 0-0.1: Grade I (unstimulated)); Test result (number of subject) (+) (human skin; content 1.0 wt %): 0; Test result (number of subject) (++) (human skin; content 1.0 wt %): 0; Test result (number of subject) (±) (human skin; content 1.0 wt %): 1; Test result (number of subject) (−) (human skin; content 1.0 wt %): 19; Degree of irritation (human skin; content 1.0 wt %): 0.05; Grade for skin irritation (human skin; content 1.0 wt %): I (Degree of irritation 0-0.1: Grade I (unstimulated)); Total amount (Cu, Zn, Mn, Ni, Cd) [5]: ≤5 ppm
O=C(O)c1ccc(N2CCN(c3ccc(C(=O)O)o3)CCN(c3ccc(C(=O)O)o3)CCN(c3ccc(C(=O)O)o3)CC2)o1 [Embodiment 8, 5,5′,5″,5′″-(1,4,7,10-tetraazacyclododecane-1,4,7,10-tetrayl)tetrakis(furan-2-carboxylic Acid)] | 61 | 149 | 64 | 156 | 71 | 173 | 0.168 | 0 | 0.305 | 86 | 176 | 96 | 196 | 99 | 202 | 39 | 156 | 47 | 188 | 49 | Arsenic (As) Adsorption rate ([4]; content 2.0%): 196%; Test result (number of subject) (+) (human skin; content 0.1 wt %): 0; Test result (number of subject) (++) (human skin; content 0.1 wt %): 0; Test result (number of subject) (±) (human skin; content 0.1 wt %): 0; Test result (number of subject) (−) (human skin; content 0.1 wt %): 20; Degree of irritation (human skin; content 0.1 wt %): 0; Grade for skin irritation (human skin; content 0.1 wt %): I (Degree of irritation 0-0.1: Grade I (unstimulated)); Test result (number of subject) (+) (human skin; content 0.5 wt %): 0; Test result (number of subject) (++) (human skin; content 0.5 wt %): 0; Test result (number of subject) (±) (human skin; content 0.5 wt %): 0; Test result (number of subject) (−) (human skin; content 0.5 wt %): 20; Degree of irritation (human skin; content 0.5 wt %): 0; Grade for skin irritation (human skin; content 0.5 wt %): I (Degree of irritation 0-0.1: Grade I (unstimulated)); Test result (number of subject) (+) (human skin; content 1.0 wt %): 0; Test result (number of subject) (++) (human skin; content 1.0 wt %): 0; Test result (number of subject) (±) (human skin; content 1.0 wt %): 2; Test result (number of subject) (−) (human skin; content 1.0 wt %): 18; Degree of irritation (human skin; content 1.0 wt %): 0.10; Grade for skin irritation (human skin; content 1.0 wt %): I (Degree of irritation 0-0.1: Grade I (unstimulated)); Total amount (Cu, Zn, Mn, Ni, Cd) [5]: ≤5 ppm
O=C(O)CN(CCN(CCN(CC(=O)O)CC(=O)O)CC(=O)O)CCN(CC(=O)O)CC(=O)O [Embodiment 1, 3,6,9,12-tetrakis(carboxymethyl)-3,6,9,12-tetraazatetradecanedioic Acid] | 74 | 180 | 79 | 193 | 84 | 205 | 0.170 | 0 | 0.305 | 91 | 186 | 101 | 206 | 112 | 229 | 48 | 192 | 50 | 200 | 53 | Arsenic (As) Adsorption rate ([4]; content 2.0%): 212%; Test result (number of subject) (+) (human skin; content 0.1 wt %): 0; Test result (number of subject) (++) (human skin; content 0.1 wt %): 0; Test result (number of subject) (±) (human skin; content 0.1 wt %): 0; Test result (number of subject) (−) (human skin; content 0.1 wt %): 20; Degree of irritation (human skin; content 0.1 wt %): 0; Grade for skin irritation (human skin; content 0.1 wt %): I (Degree of irritation 0-0.1: Grade I (unstimulated)); Test result (number of subject) (+) (human skin; content 0.5 wt %): 0; Test result (number of subject) (++) (human skin; content 0.5 wt %): 0; Test result (number of subject) (±) (human skin; content 0.5 wt %): 1; Test result (number of subject) (−) (human skin; content 0.5 wt %): 19; Degree of irritation (human skin; content 0.5 wt %): 0.05; Grade for skin irritation (human skin; content 0.5 wt %): I (Degree of irritation 0-0.1: Grade I (unstimulated)); Test result (number of subject) (+) (human skin; content 1.0 wt %): 0; Test result (number of subject) (++) (human skin; content 1.0 wt %): 0; Test result (number of subject) (±) (human skin; content 1.0 wt %): 4; Test result (number of subject) (−) (human skin; content 1.0 wt %): 16; Degree of irritation (human skin; content 1.0 wt %): 0.20; Grade for skin irritation (human skin; content 1.0 wt %): II (Degree of irritation 0.11-0.3: Grade II (weakly stimulated)); Total amount (Cu, Zn, Mn, Ni, Cd) [5]: ≤5 ppm
